Where two headings read alike, the source gives them in different places.
Legend:
[1] = alpha form obtained by process of WO 99/03854; cited from earlier work
[2] = Forced degradation (stress) study of imatinib mesylate alpha form; type: physicochemical
[3] = Hygroscopicity of the crystal form according to the invention; type: physicochemical
[4] = 60° C. for 48 hours, listed as RD/IMT-4/31
[5] = 60° C. for 48 hours, listed as RD/IMT-4/34
[6] = 105° C. for 12 hours, listed as RD/IMT-4/31
[7] = 105° C. for 12 hours, listed as RD/IMT-4/34
[8] = As such (i.e. no stress condition)
[9] = As such (i.e. no stress condition), listed as RD/IMT-4/31
[10] = As such (i.e. no stress condition), listed as RD/IMT-4/34
[11] = UV −45° C. 75 RH for 12 hours, listed as RD/IMT-4/31
[12] = UV −45° C. 75 RH for 12 hours, listed as RD/IMT-4/34

In the case of `CS(=O)(=O)O.Cc1ccc(NC(=O)c2ccc(CN3CCN(C)CC3)cc2)cc1Nc1nccc(-c2cccnc2)n1` [alpha-crystalline form], the hygroscopicity [1] is given as “highly hygroscopic” and the stability [1] is given as “not stable”.

With `CS(=O)(=O)O.Cc1ccc(NC(=O)c2ccc(CN3CCN(C)CC3)cc2)cc1Nc1nccc(-c2cccnc2)n1` [imatinib mesylate] the DSC ([2]; 60° C. for 48 hours) was “Complies”, the XRPD ([2]; 60° C. for 48 hours) was “Complies” and the DESCRIPTION [2, 4] was “Pale yellow”. For the same compound, the Purity [2, 4] was 99.44%, the “Single Max. impurity” value [2, 4] was 0.20% and the DESCRIPTION [2, 5] was “Cream coloured”. The Purity [2, 5] was 99.17%, the “Single Max. impurity” value [2, 5] was 0.30% and the DSC ([2]; 105° C. for 12 hours) was “Complies”. For the same compound, the XRPD ([2]; 105° C. for 12 hours) was “Complies”, the DESCRIPTION [2, 6] was “Pale yellow” and the Purity [2, 6] was 99.49%. For the same compound, the “Single Max. impurity” value [2, 6] was 0.17%, the DESCRIPTION [2, 7] was “Cream coloured” and the Purity [2, 7] was 99.18%. For the same compound, the “Single Max. impurity” value [2, 7] was 0.32%, the DSC [2, 8] was “Complies” and the XRPD [2, 8] was “Complies”. For the same compound, the DESCRIPTION [2, 9] was “Pale yellow”, the Purity [2, 9] was 99.45% and the “Single Max. impurity” value [2, 9] was 0.18%. For the same compound, the DESCRIPTION [2, 10] was “Cream coloured”, the Purity [2, 10] was 99.26% and the “Single Max. impurity” value [2, 10] was 0.33%. For the same compound, the DSC ([2]; UV −45° C. 75 RH for 12 hours) was “Complies”, the XRPD ([2]; UV −45° C. 75 RH for 12 hours) was “Complies” and the DESCRIPTION [2, 11] was “Pale yellow”. For the same compound, the Purity [2, 11] was 99.38%, the “Single Max. impurity” value [2, 11] was 0.19% and the DESCRIPTION [2, 12] was “Cream coloured”. For the same compound, the Purity [2, 12] was 99.18%, the “Single Max. impurity” value [2, 12] was 0.34% and the “polymorphic stability by DSC and XRPD evaluation” value ([2]; before and after stress study) was “polymorphically stable”. For the same compound, the “polymorphic identity under stress conditions” value ([2]; stress conditions such as milling or heating) was “retain the polymorphic identity”, the “level of impurities before and after stability study” value ([2]; stress: 60° C. 48 hours, 105° C. 12 hours, UV 45° C. at 75% RH 12 hours) was “no increase in the level of impurities” and the hygroscopicity [3] was “non-hygroscopic”. The “HPLC single maximum impurity content” value (Initial) was 0.23 wt %, the “HPLC total impurity content” value (Initial) was 0.50 wt % and the Water content (Initial) was 0.39 wt %. For the same compound, the “HPLC single maximum impurity content” value (after 6 months) was 0.11 wt %, the “HPLC total impurity content” value (after 6 months) was 0.33 wt % and the Water content (after 6 months) was 0.61 wt %. The “HPLC single maximum impurity content” value (after 12 months) was 0.15 wt %, the “HPLC total impurity content” value (after 12 months) was 0.41 wt % and the Water content (after 12 months) was 0.58 wt %. For the same compound, the stability on storage (storage at ambient temperature) was “stable chemically and polymorphically”.

— patent US20070265288A1 (priority 2004, published 2007)
